Reference: publication PMC10383849, “Novel Molecular Consortia of Cannabidiol with Nonsteroidal Anti-Inflammatory Drugs Inhibit Emerging Coronaviruses’ Entry” (Pathogens, 2023)
“Also recorded” adds a separate entry of the source. Like-named read-outs stand apart in the source and are kept apart here.

Legend:
[1] = test system: VSV-pseudotypes bearing SARS-CoV-2 S protein; assay: microbe, parasite or virus in culture; type: cell-based; details: for inhibitory effect on SARS-CoV-2 entry (in words): 1-100 μg/mL; for IC50: Severe acute respiratory syndrome coronavirus 2, HEK-293T, read-out: IC50, SARS-CoV-2 entry
[2] = test system: VSV-pseudotypes bearing SARS-CoV-1 S protein; assay: microbe, parasite or virus in culture; type: cell-based; details: for inhibitory effect on SARS-CoV-1 virus entry (in words): 1-100 μg/mL
[3] = test system: SARS-CoV-2; details: lung epithelial cells; ref 41 (Nguyen et al.); cited from earlier work
[4] = test system: SARS-CoV-2; details: ref 43 (van Breemen et al.); cited from earlier work
[5] = test system: influenza virus; details: cited from earlier work
[6] = test system: influenza virus A/Puerto Rico/8/34; type: cell-based
[7] = test system: influenza virus A/Puerto Rico/8/34; type: cell-based; remark: listed apart in the source

C=C(C)C1CCC(C)=CC1c1c(OC(=O)C(C)c2cccc(C(=O)c3ccccc3)c2)cc(CCCCC)cc1OC(=O)C(C)c1cccc(C(=O)c2ccccc2)c1 (centres unmarked) [CBD-K]
inhibitory effect on SARS-CoV-2 entry (in words) [1]: non-significant decrease in luciferase activity; also recorded: did not significantly affect
inhibitory effect on SARS-CoV-1 virus entry (in words) [2]: did not find any significant inhibitory effect

C=C(C)C1CCC(C)=CC1c1c(OC(=O)C(C)c2ccc(CC(C)C)cc2)cc(CCCCC)cc1OC(=O)C(C)c1ccc(CC(C)C)cc1 (centres unmarked) [CBD-I]
inhibitory effect on SARS-CoV-2 entry (in words) [1]: significantly inhibited; also recorded: significantly reduced
IC50 [1]: < 1 mg/L
inhibitory effect on SARS-CoV-1 virus entry (in words) [2]: did not find any significant inhibitory effect

C=C(C)[C@@H]1CCC(C)=C[C@H]1c1c(O)cc(CCCCC)cc1O [CBD, cannabidiol]
inhibition of SARS-CoV-2 replication (in words) [3]: inhibit SARS-CoV-2 replication

C=C(C)[C@@H]1CCC(CO)=C[C@H]1c1c(O)cc(CCCCC)cc1O [7-OH-CBD]
inhibition of SARS-CoV-2 replication (in words) [3]: inhibit SARS-CoV-2 replication

CCCCCc1cc(O)c(C/C=C(\C)CCC=C(C)C)c(O)c1C(=O)O [CBGA, cannabigerolic acid]
block of SARS-CoV-2 entry into cells (in words) [4]: significantly block SARS-CoV-2 entry

COc1ccc2cc([C@H](C)C(=O)O)ccc2c1 [naproxen]
anti-influenza virus activity (in words) [5]: broad anti-influenza virus activity

C=C(C)C1CCC(C)=CC1c1c(OC(=O)C(C)c2ccc3cc(OC)ccc3c2)cc(CCCCC)cc1OC(=O)C(C)c1ccc2cc(OC)ccc2c1 (centres unmarked) [CBD-N]
fold inhibition of SARS-CoV-2 entry [1]: greater than 10 fold
inhibitory effect on SARS-CoV-2 entry (in words) [1]: significantly inhibited; also recorded: significantly reduced
IC50 [1]: < 1 mg/L
fold reduction in luciferase activity, SARS-CoV-1 ([2]; 1 μg/mL): approximately 2 fold
fold decrease in luciferase activity, SARS-CoV-1 ([2]; 50 μg/mL): greater than 10 fold
fold decrease in luciferase activity, SARS-CoV-1 ([2]; 100 μg/mL): greater than 10 fold
inhibitory effect on SARS-CoV-1 virus entry (in words) [2]: significant reduction; also recorded: significant inhibitory activity
IC50 ([2]; Severe acute respiratory syndrome coronavirus, HEK-293T, read-out: IC50, SARS-CoV-1 virus entry): < 1 mg/L
viral copy numbers in the supernatants vs mock [6]: did not find any effect
viral copy numbers in the supernatants vs mock [7]: did not find any effect

C=C(C)[C@@H]1CCC(C)=C[C@H]1c1c(O)cc(CCCCC)c(C(=O)O)c1O [CBDA, cannabidiolic acid]
block of SARS-CoV-2 entry into cells (in words) [4]: significantly block SARS-CoV-2 entry
